ChEMBL document CHEMBL3611979, “Design, synthesis and biological characterization of selective LIMK inhibitors” (Bioorg Med Chem Lett, 2015)

Columns and labels:
[1] = target: cAMP-dependent protein kinase (PKA) (Homo sapiens, UniProt P22694+P17612+P22612); experiment: Inhibition of PKA (unknown origin) by radiometric assay; assay type: protein assay
[2] = target: Rho-associated protein kinase 2 (Homo sapiens, UniProt O75116); experiment: Inhibition of ROCK2 (unknown origin) by radiometric assay
Rho-associated protein kinase 2, sequence (O75116 whole entry, the tested form may be a part): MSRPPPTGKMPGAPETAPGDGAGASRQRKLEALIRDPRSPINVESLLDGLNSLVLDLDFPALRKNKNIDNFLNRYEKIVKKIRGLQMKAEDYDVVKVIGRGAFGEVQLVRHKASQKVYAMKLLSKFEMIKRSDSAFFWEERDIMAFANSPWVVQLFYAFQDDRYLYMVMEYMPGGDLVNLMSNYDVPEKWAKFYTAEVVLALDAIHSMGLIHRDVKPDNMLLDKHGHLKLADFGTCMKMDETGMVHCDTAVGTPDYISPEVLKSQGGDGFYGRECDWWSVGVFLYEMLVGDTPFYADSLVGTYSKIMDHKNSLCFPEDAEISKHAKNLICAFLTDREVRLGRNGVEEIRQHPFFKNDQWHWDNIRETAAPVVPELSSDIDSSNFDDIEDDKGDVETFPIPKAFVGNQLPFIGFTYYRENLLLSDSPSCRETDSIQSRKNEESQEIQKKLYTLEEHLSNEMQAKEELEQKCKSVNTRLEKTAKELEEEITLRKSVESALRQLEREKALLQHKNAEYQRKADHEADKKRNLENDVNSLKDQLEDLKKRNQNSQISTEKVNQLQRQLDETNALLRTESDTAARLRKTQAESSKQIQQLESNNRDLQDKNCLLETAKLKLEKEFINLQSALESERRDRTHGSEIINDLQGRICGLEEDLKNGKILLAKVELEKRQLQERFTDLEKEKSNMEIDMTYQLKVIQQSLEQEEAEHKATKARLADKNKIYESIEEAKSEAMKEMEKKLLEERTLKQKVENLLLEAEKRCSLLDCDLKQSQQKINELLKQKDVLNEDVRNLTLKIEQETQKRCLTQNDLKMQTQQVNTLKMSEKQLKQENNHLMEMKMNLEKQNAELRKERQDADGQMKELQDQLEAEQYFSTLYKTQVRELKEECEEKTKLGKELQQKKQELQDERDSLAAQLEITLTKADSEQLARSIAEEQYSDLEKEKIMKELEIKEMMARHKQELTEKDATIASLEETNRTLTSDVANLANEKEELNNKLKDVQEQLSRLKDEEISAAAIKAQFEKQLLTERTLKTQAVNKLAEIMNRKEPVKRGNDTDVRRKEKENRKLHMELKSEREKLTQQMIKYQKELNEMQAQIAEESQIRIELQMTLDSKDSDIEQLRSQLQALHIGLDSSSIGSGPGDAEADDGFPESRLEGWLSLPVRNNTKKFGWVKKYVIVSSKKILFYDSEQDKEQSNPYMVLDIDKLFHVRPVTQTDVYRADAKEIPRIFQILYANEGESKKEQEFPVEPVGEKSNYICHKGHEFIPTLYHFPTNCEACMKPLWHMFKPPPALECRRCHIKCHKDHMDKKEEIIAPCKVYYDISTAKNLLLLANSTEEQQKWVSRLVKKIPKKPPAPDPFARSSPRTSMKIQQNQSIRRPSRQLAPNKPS

[3] = target: LIM domain kinase 1 (Homo sapiens, UniProt P53667); experiment: Inhibition of LIMK1 (unknown origin) by radiometric assay
LIM domain kinase 1, sequence (P53667 whole entry, the tested form may be a part): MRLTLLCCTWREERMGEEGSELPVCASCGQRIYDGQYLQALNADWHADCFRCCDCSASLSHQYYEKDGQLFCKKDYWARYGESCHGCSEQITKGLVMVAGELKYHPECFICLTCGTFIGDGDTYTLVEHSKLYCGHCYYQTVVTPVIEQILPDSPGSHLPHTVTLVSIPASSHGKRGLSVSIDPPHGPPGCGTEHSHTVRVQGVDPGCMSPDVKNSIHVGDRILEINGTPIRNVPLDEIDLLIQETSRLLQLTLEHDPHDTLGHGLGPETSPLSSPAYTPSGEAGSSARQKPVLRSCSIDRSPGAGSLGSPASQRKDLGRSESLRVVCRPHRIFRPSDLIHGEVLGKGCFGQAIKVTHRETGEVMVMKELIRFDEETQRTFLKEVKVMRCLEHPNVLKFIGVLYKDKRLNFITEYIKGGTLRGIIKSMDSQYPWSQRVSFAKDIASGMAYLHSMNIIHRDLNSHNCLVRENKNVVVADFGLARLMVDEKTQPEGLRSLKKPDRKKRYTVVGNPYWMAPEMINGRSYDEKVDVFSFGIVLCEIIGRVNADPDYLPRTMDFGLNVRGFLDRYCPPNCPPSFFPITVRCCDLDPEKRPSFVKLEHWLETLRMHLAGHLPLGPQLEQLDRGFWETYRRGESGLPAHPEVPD

[4] = target: LIM domain kinase 2 (Homo sapiens, UniProt P53671); experiment: Inhibition of LIMK2 (unknown origin) by radiometric assay
LIM domain kinase 2, sequence (P53671 whole entry, the tested form may be a part): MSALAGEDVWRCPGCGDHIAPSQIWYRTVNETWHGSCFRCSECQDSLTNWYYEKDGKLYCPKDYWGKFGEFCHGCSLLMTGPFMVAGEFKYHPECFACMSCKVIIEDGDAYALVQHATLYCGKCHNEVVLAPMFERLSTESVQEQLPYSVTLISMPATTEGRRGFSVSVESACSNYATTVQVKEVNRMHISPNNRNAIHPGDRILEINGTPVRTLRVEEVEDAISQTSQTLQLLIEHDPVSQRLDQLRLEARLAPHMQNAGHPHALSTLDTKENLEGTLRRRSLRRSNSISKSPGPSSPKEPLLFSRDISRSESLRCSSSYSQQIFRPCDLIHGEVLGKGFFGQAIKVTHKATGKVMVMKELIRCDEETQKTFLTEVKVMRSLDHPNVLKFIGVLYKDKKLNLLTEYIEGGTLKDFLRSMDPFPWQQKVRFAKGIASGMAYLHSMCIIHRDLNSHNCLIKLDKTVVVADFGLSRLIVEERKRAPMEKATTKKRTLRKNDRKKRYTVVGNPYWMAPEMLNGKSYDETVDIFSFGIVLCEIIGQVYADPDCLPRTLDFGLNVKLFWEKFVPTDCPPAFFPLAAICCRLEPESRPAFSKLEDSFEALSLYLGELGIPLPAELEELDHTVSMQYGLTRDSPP

[5] = Inhibition of LIMK in human HeLa cells assessed as reduction in cofilin Ser3 phosphorylation by sandwich immunoassay; assay type: cell-based
[6] = tested on: Oryctolagus cuniculus; experiment: Toxicity in ocular normotensive New Zealand White rabbit assessed as induction of conjunctival hyperemia at 200 µg/eye drop dosed as single topical administration measured 1 to 6 hrs post compound instillation; assay type: organism-based, Conjunctiva; conditions: in vivo, topical_or_ocular
[7] = target: RAC-alpha serine/threonine-protein kinase (Homo sapiens, UniProt P31749); experiment: Inhibition of AKT1 (unknown origin) by radiometric assay
RAC-alpha serine/threonine-protein kinase, sequence (P31749 whole entry): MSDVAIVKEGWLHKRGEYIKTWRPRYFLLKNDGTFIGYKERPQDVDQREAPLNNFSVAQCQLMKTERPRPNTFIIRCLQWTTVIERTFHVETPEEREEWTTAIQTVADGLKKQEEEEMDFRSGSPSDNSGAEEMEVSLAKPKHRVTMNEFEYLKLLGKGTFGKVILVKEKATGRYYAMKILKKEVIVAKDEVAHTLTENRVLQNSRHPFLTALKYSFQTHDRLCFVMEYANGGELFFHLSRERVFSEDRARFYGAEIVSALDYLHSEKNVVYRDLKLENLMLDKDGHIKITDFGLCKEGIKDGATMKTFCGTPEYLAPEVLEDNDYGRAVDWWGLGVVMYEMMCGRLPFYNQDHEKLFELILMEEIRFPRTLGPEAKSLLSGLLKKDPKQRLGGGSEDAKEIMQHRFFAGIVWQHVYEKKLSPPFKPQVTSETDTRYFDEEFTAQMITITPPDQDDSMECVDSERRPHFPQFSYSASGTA

[8] = Inhibition of ROCK in rat A7r5 cells assessed as reduction in MLC Thr18/Ser19 phosphorylation by direct-ELISA method; assay type: cell-based

Row | IC50 [1] [nM] | IC50 [2] [nM] | IC50 [3] [nM] | IC50 [4] [nM] | Compound | EC50 [5] [nM] | Activity [6] | IC50 [7] [nM] | EC50 [8] [µM]
1 | > 1000 | > 1000 | 239 | 494 | COC(=O)c1cccc(NC(=O)C2(N)CCN(c3cc(NC(C)=O)ncn3)CC2)c1 | – | – | – | –
2 | 81 | 100 | 18 | 7.4 | COC(=O)c1cccc(NC(=O)C2(N)CCN(c3ncnc4[nH]cc(C)c34)CC2)c1 | – | – | – | –
3 | > 1000 | > 1000 | > 1000 | > 10000 | COC(=O)c1cccc(NC(=O)C2(N)CCN(c3ccncn3)CC2)c1 | – | – | – | –
4 | 1.1 | 1.8 | 23 | 13 | COC(=O)c1cccc(NC(=O)C2(CN(C)C)CCN(c3ncnc4[nH]ccc34)CC2)c1 | – | – | – | –
5 | 69 | 67 | 31 | 9.6 | COC(=O)c1cccc(NC(=O)C2(N)CCN(c3ncnc4[nH]ccc34)CC2)c1 | – | – | – | –
6 | 3.8 | 11 | 65 | 274 | COC(=O)c1cccc(NC(=O)C2(CN(C)C)CCN(c3ccnc4[nH]ncc34)CC2)c1 | – | – | – | –
7 | > 1000 | 2060 | 945 | 4560 | COC(=O)c1cccc(NC(=O)C2(N)CCN(c3cc(N)ncn3)CC2)c1 | – | – | – | –
8 | > 1000 | 416 | > 1000 | > 10000 | COC(=O)c1cccc(NC(=O)C2(N)CCN(c3ccnc(N)n3)CC2)c1 | – | – | – | –
9 | < 1 | < 1 | 16 | < 1 | COC(=O)c1cccc(NC(=O)C2(CN)CCN(c3ncnc4[nH]cc(C)c34)CC2)c1 | – | – | – | –
10 | > 1000 | > 1000 | > 10000 | > 10000 | COC(=O)c1cccc(NC(=O)C2(N)CCN(c3ccnc(NC(C)=O)n3)CC2)c1 | – | – | – | –
11 | 150 | 63 | 37 | 12 | COC(=O)c1cccc(NC(=O)C2(N(C)C)CCN(c3ncnc4[nH]cc(C)c34)CC2)c1 | – | – | – | –

More lines, now with the values behind:

Row | Compound | IC50 [1] [nM] | IC50 [2] [nM] | IC50 [3] [nM] | IC50 [4] [nM] | EC50 [5] [nM] | Activity [6] | IC50 [7] [nM] | EC50 [8] [µM]
12 | C#CCOC(=O)c1cccc(NC(=O)C2(CN(C)C)CCN(c3ncnc4[nH]cc(C)c34)CC2)c1 | 2.2 | 16 | 7.6 | < 1 | – | – | – | –
13 | Cc1c[nH]c2ncnc(N3CCC(CN)(C(=O)Nc4cccc(OC(=O)N(C)C)c4)CC3)c12 [LX-7101] | < 1 | 10 | – | 1.6 | 8.7 | Toxic | < 1 | 2.3
14 | COC(=O)c1cccc(NC(=O)C2(CN(C)C)CCN(c3ncnc4[nH]cc(F)c34)CC2)c1 | < 1 | 5.7 | 20 | 2.8 | – | – | – | –
15 | COC(=O)c1cccc(NC(=O)C2(CN(C)C)CCN(c3ncnc4[nH]c(C)c(C)c34)CC2)c1 | > 1000 | > 1000 | 26 | 1.6 | – | – | > 1000 | > 10
16 | Cc1c[nH]c2ncnc(N3CCC(CN(C)C)(C(=O)Nc4cccc(OC(=O)N(C)C)c4)CC3)c12 | 2.6 | 40 | 19 | < 1 | – | – | – | –
17 | COC(=O)c1cccc(NC(=O)C2(CN(C)C)CCN(c3ncnc4c3CC(=O)N4)CC2)c1 | 1130 | > 10000 | 1000 | 1860 | – | – | – | –
18 | COC(=O)c1cccc(NC(=O)C2(CN(C)C)CCN(c3ncnc4[nH]cc(C)c34)CC2)c1 | 24 | 8.9 | 27 | 1.5 | – | – | – | –
19 | COC(=O)c1cccc(NC(=O)C2(CN(C)C)CCN(c3ncnc4[nH]c(C)cc34)CC2)c1 | 332 | 652 | 23 | 8 | – | – | – | –
20 | COC(=O)Cc1cccc(NC(=O)C2(CN(C)C)CCN(c3ncnc4[nH]cc(C)c34)CC2)c1 | 7 | 56 | 57 | < 1 | – | – | – | –
21 | Cc1c[nH]c2ncnc(N3CCC(CN(C)C)(C(=O)Nc4cccc(C(=O)OC(C)C)c4)CC3)c12 | 22 | 53 | 41 | 2.2 | – | – | – | –
22 | COC(=O)COc1cccc(NC(=O)C2(CN(C)C)CCN(c3ncnc4[nH]cc(C)c34)CC2)c1 | 5.4 | 7.9 | 38 | < 1 | – | – | – | –
23 | Cc1[nH]c2ncnc(N3CCC(CN(C)C)(C(=O)Nc4cccc(OC(=O)N(C)C)c4)CC3)c2c1C | > 1000 | > 1000 | 22 | 1.4 | 9 | – | > 1000 | > 10
24 | COC(=O)c1cccc(NC(=O)C2(CN(C)C)CCN(c3ncnc4[nH]ncc34)CC2)c1 | 5.1 | 62 | 282 | 193 | – | – | – | –
25 | COC(=O)c1cccc(NC(=O)C2(CN(C)C)CCN(c3ncnc4[nH]cc(C#N)c34)CC2)c1 | < 1 | 2.5 | 25 | 4 | – | – | – | –
26 | COC(=O)c1ccc(NC(=O)C2(CN(C)C)CCN(c3ncnc4[nH]cc(C)c34)CC2)cc1 | 2.7 | 7.2 | 41 | 7.7 | – | – | – | –
27 | CCCOC(=O)c1cccc(NC(=O)C2(CN(C)C)CCN(c3ncnc4[nH]cc(C)c34)CC2)c1 | 5.8 | 41 | 50 | 2.1 | – | – | – | –
28 | CCC(C)OC(=O)c1cccc(NC(=O)C2(CN(C)C)CCN(c3ncnc4[nH]cc(C)c34)CC2)c1 (stereo not given) | 24 | 137 | 50 | 4.6 | – | – | – | –
